Results taken from the NIST ThermoML archive (doi:10.1016/j.fluid.2010.02.010).

What was measured:
[1] = excess molar enthalpy (molar enthalpy of mixing); xn = mol fraction of the nth substance listed; details: 101 kPa, Liquid, Flow calorimetry
[2] = activity coefficient (dimensionless); of the first substance listed, at infinite dilution; xn = mol fraction of the nth substance listed; details: 101 kPa, Liquid, x1 = 0
[3] = 101.33 kPa, Liquid, Vibrating tube method

CCCCn1cc[n+](C)c1.O=S(=O)([O-])C(F)(F)F [1-butyl-3-methylimidazolium trifluoromethanesulfonate] + C=CCCCC
[1], 413.15 K
Details | excess molar enthalpy [kcal/mol]
x2 = 0.0431 | 0.0234
x2 = 0.0845 | 0.0443
x2 = 0.1632 | 0.0602
x2 = 0.2004 | 0.0576
x2 = 0.2364 | 0.0555
x2 = 0.3049 | 0.0508
x2 = 0.3691 | 0.0468
x2 = 0.4292 | 0.0423
x2 = 0.5391 | 0.0335
x2 = 0.637 | 0.0269
x2 = 0.7247 | 0.0206
x2 = 0.8404 | 0.0125
x2 = 0.9405 | 0.00488

CCCCn1cc[n+](C)c1.O=S(=O)([O-])C(F)(F)F [1-butyl-3-methylimidazolium trifluoromethanesulfonate] + CCCCCC
[1], 413.15 K
Details | excess molar enthalpy [kcal/mol]
x2 = 0.0413 | 0.0571
x2 = 0.1199 | 0.0756
x2 = 0.1573 | 0.0722
x2 = 0.1936 | 0.0687
x2 = 0.2287 | 0.0655
x2 = 0.2958 | 0.0595
x2 = 0.359 | 0.0545
x2 = 0.4186 | 0.0494
x2 = 0.5283 | 0.0413
x2 = 0.6269 | 0.0317
x2 = 0.7159 | 0.0248
x2 = 0.8344 | 0.0148
x2 = 0.938 | 0.00684

CCCCn1cc[n+](C)c1.O=S(=O)([O-])C(F)(F)F [1-butyl-3-methylimidazolium trifluoromethanesulfonate] + CCCCCCC
[1]
Details | excess molar enthalpy [kcal/mol]
363.15 K, x2 = 0.02 | 0.0178
363.15 K, x2 = 0.0501 | 0.0321
363.15 K, x2 = 0.1001 | 0.0421
363.15 K, x2 = 0.1502 | 0.0435
363.15 K, x2 = 0.2002 | 0.0418
363.15 K, x2 = 0.3003 | 0.037
363.15 K, x2 = 0.4003 | 0.0312
363.15 K, x2 = 0.5003 | 0.0263
363.15 K, x2 = 0.6003 | 0.0207
363.15 K, x2 = 0.7003 | 0.0152
363.15 K, x2 = 0.8002 | 0.00987
363.15 K, x2 = 0.9001 | 0.00492
413.15 K, x2 = 0.0371 | 0.073
413.15 K, x2 = 0.1085 | 0.0833
413.15 K, x2 = 0.143 | 0.0831
413.15 K, x2 = 0.1766 | 0.0805
413.15 K, x2 = 0.2094 | 0.0775
413.15 K, x2 = 0.2729 | 0.0713
413.15 K, x2 = 0.3335 | 0.0655
413.15 K, x2 = 0.3915 | 0.0611
413.15 K, x2 = 0.5002 | 0.0505
413.15 K, x2 = 0.6002 | 0.0409
413.15 K, x2 = 0.6925 | 0.0319
413.15 K, x2 = 0.8183 | 0.0198
413.15 K, x2 = 0.9311 | 0.0076

C=CCCCCC [1-heptene] + CCCCCCCCn1cc[n+](C)c1.O=S(=O)([O-])C(F)(F)F
[2], dilutor technique
Details | activity coefficient
303.21 K | 6.11
313.15 K | 6.03
323.14 K | 5.97
333.12 K | 5.89

C=CCCCCC [1-heptene] + CCCCCCn1cc[n+](C)c1.O=S(=O)([O-])C(F)(F)F
activity coefficient, [2]
Details | 303.14 K | 303.16 K | 313.15 K | 313.17 K | 323.15 K | 333.14 K | 333.18 K
Chromatography | 11.2 | – | 10.8 | – | 10.6 | 10.4 | –
dilutor technique | – | 11 | – | 10.6 | 10.4 | – | 10.1

C=CCCCCC [1-heptene] + CCCCn1cc[n+](C)c1.O=S(=O)([O-])C(F)(F)F
activity coefficient, [2]
Details | 303.17 K | 303.45 K | 313.13 K | 313.15 K | 323.14 K | 323.16 K | 333.15 K | 333.16 K
Chromatography | – | 21.8 | – | 21.3 | 20.6 | – | 19.9 | –
Dilutor technique | 22.1 | – | 21.2 | – | – | 20.2 | – | 19.7

CCCCCCn1cc[n+](C)c1.O=S(=O)([O-])C(F)(F)F [1-hexyl-3-methylimidazolium trifluoromethanesulfonate]
[3]
Details | mass density [kg/m3]
308.16 K | 1231.4
313.16 K | 1227.6
318.16 K | 1223.8
323.16 K | 1220
328.16 K | 1216.2
333.16 K | 1212.5
338.16 K | 1208.7
343.16 K | 1205
348.15 K | 1201.3

CCCCCCn1cc[n+](C)c1.O=S(=O)([O-])C(F)(F)F [1-hexyl-3-methylimidazolium trifluoromethanesulfonate] + C=CCCCC
[1], 413.15 K
Details | excess molar enthalpy [kcal/mol]
x2 = 0.0407 | 0.00805
x2 = 0.0604 | 0.0117
x2 = 0.0797 | 0.0159
x2 = 0.0987 | 0.0205
x2 = 0.1172 | 0.0245
x2 = 0.1353 | 0.0282

CCCCCCCCn1cc[n+](C)c1.O=S(=O)([O-])C(F)(F)F [1-octyl-3-methylimidazolium trifluoromethanesulfonate]
[3]
Details | mass density [kg/m3]
293.15 K | 1197
298.15 K | 1193.2
303.15 K | 1189.5
308.14 K | 1185.8
313.15 K | 1182.1
318.15 K | 1178.4
323.14 K | 1174.7
328.14 K | 1171.1
333.14 K | 1167.4
338.14 K | 1163.7
343.15 K | 1160.1
348.15 K | 1156.5
353.14 K | 1152.9

C=CCCC [1-pentene] + CCCCCCn1cc[n+](C)c1.O=S(=O)([O-])C(F)(F)F
[2], dilutor technique
Details | activity coefficient
303.18 K | 4.62
313.15 K | 4.58
323.16 K | 4.54
333.15 K | 4.51

C=CCCC [1-pentene] + CCCCn1cc[n+](C)c1.O=S(=O)([O-])C(F)(F)F
activity coefficient, [2]
Details | 303.45 K | 313.15 K | 323.15 K | 333.15 K | 333.18 K
Chromatography | 10.1 | 9.69 | 9.48 | 9.18 | –
Dilutor technique | – | 9.55 | 9.34 | – | 9.06

CCCCCCC [heptane] + CCCCCCCCn1cc[n+](C)c1.O=S(=O)([O-])C(F)(F)F
[2], dilutor technique
Details | activity coefficient
303.16 K | 9.59
313.14 K | 9.42
323.14 K | 9.26
333.11 K | 9.06

CCCCCCC [heptane] + CCCCCCn1cc[n+](C)c1.O=S(=O)([O-])C(F)(F)F
[2], dilutor technique
Details | activity coefficient
303.16 K | 19.2
313.18 K | 18
323.16 K | 17.4
333.14 K | 16.6

CCCCCCC [heptane] + CCCCn1cc[n+](C)c1.O=S(=O)([O-])C(F)(F)F
activity coefficient, [2]
Details | 303.12 K | 303.45 K | 313.15 K | 323.12 K | 323.14 K | 333.15 K | 333.21 K
Chromatography | – | 45 | 42.4 | – | 39.8 | 37 | –
Dilutor technique | 45 | – | 42.3 | 39.8 | – | – | 36.9

C=CCCCC [hex-1-ene] + CCCCCCCCn1cc[n+](C)c1.O=S(=O)([O-])C(F)(F)F
[2], dilutor technique
Details | activity coefficient
303.13 K | 4.68
313.13 K | 4.61
323.16 K | 4.57
333.16 K | 4.53

C=CCCCC [hex-1-ene] + CCCCCCn1cc[n+](C)c1.O=S(=O)([O-])C(F)(F)F
[2], dilutor technique
Details | activity coefficient
303.18 K | 7.4
313.15 K | 7.23
323.16 K | 7.03
333.15 K | 6.86

C=CCCCC [hex-1-ene] + CCCCn1cc[n+](C)c1.O=S(=O)([O-])C(F)(F)F
activity coefficient, [2]
Details | 303.17 K | 303.45 K | 313.15 K | 313.36 K | 323.14 K | 323.15 K | 333.14 K | 333.18 K
Chromatography | – | 14.4 | – | 14 | 13.5 | – | 13 | –
Dilutor technique | 14.3 | – | 13.8 | – | – | 13.5 | – | 12.9

CCCCCC [hexane] + CCCCCCCCn1cc[n+](C)c1.O=S(=O)([O-])C(F)(F)F
[2], dilutor technique
Details | activity coefficient
303.15 K | 7.25
323.16 K | 7.15
333.18 K | 7.09

CCCCCC [hexane] + CCCCCCn1cc[n+](C)c1.O=S(=O)([O-])C(F)(F)F
[2], dilutor technique
Details | activity coefficient
303.11 K | 12.8
313.16 K | 11.9
323.17 K | 11.4
333.17 K | 10.9

CCCCCC [hexane] + CCCCn1cc[n+](C)c1.O=S(=O)([O-])C(F)(F)F
activity coefficient, [2]
Details | 303.16 K | 303.45 K | 313.15 K | 313.19 K | 323.14 K | 323.16 K | 333.15 K | 333.22 K
Chromatography | – | 29.8 | 28.4 | – | 26.5 | – | 24.8 | –
Dilutor technique | 29 | – | – | 27.7 | – | 25.9 | – | 24.5

C=CCCCCCC [oct-1-ene] + CCCCCCCCn1cc[n+](C)c1.O=S(=O)([O-])C(F)(F)F
[2], dilutor technique
Details | activity coefficient
303.21 K | 8
313.15 K | 7.86
323.14 K | 7.79
333.12 K | 7.66

C=CCCCCCC [oct-1-ene] + CCCCCCn1cc[n+](C)c1.O=S(=O)([O-])C(F)(F)F
activity coefficient, [2]
Details | 303.14 K | 303.16 K | 313.15 K | 313.17 K | 323.15 K | 333.14 K | 333.18 K
Chromatography | 15.4 | – | 15 | – | 14.6 | 14.3 | –
dilutor technique | – | 15 | – | 14.5 | 14.2 | – | 13.7

C=CCCCCCC [oct-1-ene] + CCCCn1cc[n+](C)c1.O=S(=O)([O-])C(F)(F)F
activity coefficient, [2]
Details | 303.17 K | 303.45 K | 313.13 K | 313.15 K | 323.14 K | 323.16 K | 333.15 K | 333.16 K
Chromatography | – | 33.7 | – | 32 | 30.6 | – | 29.3 | –
Dilutor technique | 33.3 | – | 31.5 | – | – | 29.9 | – | 29

CCCCCCCC [octane] + CCCCCCCCn1cc[n+](C)c1.O=S(=O)([O-])C(F)(F)F
[2], dilutor technique
Details | activity coefficient
303.16 K | 12.6
313.14 K | 12.2
323.14 K | 12
333.11 K | 11.7

CCCCCCCC [octane] + CCCCCCn1cc[n+](C)c1.O=S(=O)([O-])C(F)(F)F
activity coefficient, [2]
Details | 303.14 K | 303.16 K | 313.15 K | 313.18 K | 323.15 K | 323.16 K | 333.14 K
Chromatography | 27.2 | – | 25.8 | – | 24.8 | – | 23.8
dilutor technique | – | 27.1 | – | 25.5 | – | 24.6 | 23.4

CCCCCCCC [octane] + CCCCn1cc[n+](C)c1.O=S(=O)([O-])C(F)(F)F
activity coefficient, [2]
Details | 303.12 K | 303.15 K | 313.15 K | 313.36 K | 323.12 K | 323.15 K | 333.15 K | 333.21 K
Chromatography | – | 71.2 | – | 65.5 | – | 60.3 | 55.2 | –
Dilutor technique | 70.3 | – | 65.6 | – | 60.1 | – | – | 55.7

CCCCC [pentane] + CCCCn1cc[n+](C)c1.O=S(=O)([O-])C(F)(F)F
[2], Dilutor technique
Details | activity coefficient
313.19 K | 18
323.16 K | 17.5
333.22 K | 16.8
